Test results from US11274083B2, “Substituted thiophenyl uracils, salts thereof and the use thereof as herbicidal agents” (Syngenta Crop Protection AG, priority 2017, dated 2022).

How the values were obtained:
Assay type in all cases: in vivo
[1] = test system: Alopecurus myosuroides; assay: Herbicidal action post-emergence, greenhouse pot test; conditions: scored visually after about 3 weeks vs untreated controls
How it was run: (§1)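 Plants grown from seed in sandy loam are treated at the one-leaf stage with aqueous suspensions or emulsions, 600 L/ha water rate, 0.5% additive, at 80 g/ha or lower. They then stand about 3 weeks in the greenhouse before visual scoring against untreated controls.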

[2] = test system: Amaranthus retroflexus; assay: as above
How it was run: as §1

[3] = test system: Avena fatua; assay: as above
How it was run: as §1

[4] = test system: Setaria viridis; assay: as above; conditions: application rate 20 g/ha
How it was run: as §1

[5] = test system: Abutilon theophrasti; assay: as above
How it was run: as §1

[6] = test system: Matricaria inodora; assay: as above
How it was run: as §1

[7] = test system: Veronica persica; assay: as above
How it was run: as §1

[8] = test system: Viola tricolor; assay: as above; conditions: application rate 20 g/ha
How it was run: as §1

[9] = test system: Pharbitis purpurea; assay: as above
How it was run: as §1

[10] = test system: Polygonum convolvulus; assay: as above
How it was run: as §1

[11] = test system: Stellaria media; assay: as above
How it was run: as §1

[12] = test system: Echinochloa crus-galli; assay: as above
How it was run: as §1

[13] = test system: Digitaria sanguinalis; assay: as above; conditions: application rate 20 g/ha
[14] = test system: Zea mays; assay: Crop compatibility post-emergence, greenhouse pot test; conditions: application rate 20 g/ha
How it was run: (§2)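 Visual % damage versus untreated plants, read about 3 weeks after treatment (100% = plants died, 0% = as control). Crops were sown in sandy loam pots in a greenhouse and sprayed at one-leaf stage with WP/EC compound in water with 0.5% additive, 600 L/ha.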

[15] = test system: Oryza sativa; assay: as above; conditions: application rate 20 g/ha
How it was run: as §2

[16] = test system: Lolium rigidum; assay: Herbicidal action post-emergence, greenhouse pot test; conditions: application rate 80 g/ha
How it was run: as §1

[17] = test system: Triticum aestivum; assay: Crop compatibility post-emergence, greenhouse pot test
How it was run: as §2

[18] = test system: Matricaria inodora; assay: Herbicidal action pre-emergence, greenhouse pot test
From the text: Seeds of mono- and dicotyledonous weeds and crop plants were laid out in plastic or organic plant pots and covered with soil. The compounds of the invention formulated in the form of wettable powders (WP) or as emulsion concentrates (EC) were then applied to the surface of the covering soil as an aqueous suspension or emulsion with addition of 0.5% additive at a water application rate equivalent to 600 L/ha. After the treatment, the pots were placed in a greenhouse and kept under good growth conditions for the test plants. After about 3 weeks, the efficacy of the preparations was scored visually as a percentage by comparison with untreated controls. For example, 100% efficacy=plants have died. 0% efficacy=like control plants. Tables B1 to B17 below show the efficacies of selected compounds of the general formula (I) […] aforementioned trial method.

[19] = test system: Alopecurus myosuroides; assay: as above; conditions: application rate 320 g/ha
How it was run: (§3)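 Efficacy (%) was estimated visually after about 3 weeks in the greenhouse by comparison with untreated pots. Before that, seeded pots received a surface spray of formulated compound at 320 g/ha or less.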

[20] = test system: Hordeum murinum; assay: as above; conditions: application rate 320 g/ha
How it was run: as §3

[21] = test system: Amaranthus retroflexus; assay: as above
How it was run: as §3

[22] = test system: Avena fatua; assay: as above; conditions: application rate 320 g/ha
How it was run: as §3

[23] = test system: Setaria viridis; assay: as above
How it was run: as §3

[24] = test system: Abutilon theophrasti; assay: as above
How it was run: as §3

[25] = test system: Lolium rigidum; assay: as above; conditions: application rate 320 g/ha
How it was run: as §3

[26] = test system: Veronica persica; assay: as above
How it was run: as §3

[27] = test system: Viola tricolor; assay: as above
How it was run: as §3

[28] = test system: Cyperus esculentus; assay: as above; conditions: application rate 320 g/ha
How it was run: as §3

[29] = test system: Pharbitis purpurea; assay: as above
How it was run: as §3

[30] = test system: Polygonum convolvulus; assay: as above
How it was run: as §3

[31] = test system: Stellaria media; assay: as above
How it was run: as §3

[32] = test system: Echinochloa crus-galli; assay: as above; conditions: application rate 320 g/ha
How it was run: as §3

SMILES | Amaranthus retroflexus (Efficacy in %) ([2]; application rate 20 g/ha) [%] | Setaria viridis (Efficacy in %) [4] [%] | Abutilon theophrasti (Efficacy in %) ([5]; application rate 20 g/ha) [%] | Matricaria inodora (Efficacy in %) ([6]; application rate 20 g/ha) [%] | Viola tricolor (Efficacy in %) [8] [%] | Pharbitis purpurea (Efficacy in %) ([9]; application rate 20 g/ha) [%] | Polygonum convolvulus (Efficacy in %) ([10]; application rate 20 g/ha) [%] | Stellaria media (Efficacy in %) ([11]; application rate 20 g/ha) [%] | Echinochloa crus-galli (Efficacy in %) ([12]; application rate 20 g/ha) [%] | Zea mays (Efficacy in %) [14] [%] | Oryza sativa (Efficacy in %) [15] [%] | Lolium rigidum (Efficacy in %) [16] [%] | Veronica persica (Efficacy in %) ([7]; application rate 80 g/ha) [%] | Alopecurus myosuroides (Efficacy in %) [19] [%] | Hordeum murinum (Efficacy in %) [20] [%] | Avena fatua (Efficacy in %) [22] [%] | Lolium rigidum (Efficacy in %) [25] [%] | Cyperus esculentus (Efficacy in %) [28] [%] | Echinochloa crus-galli (Efficacy in %) [32] [%] | also measured
CCOC(=O)CCOC(=O)C(CC)Sc1cc(-n2c(=O)cc(C(F)(F)F)n(C)c2=O)c(F)cc1Cl (stereo not shown) [I.1-2-3, 3-Ethoxy-3-oxopropyl 2-({2-chloro-4-fluoro-5-[3-methyl-2,6-dioxo-4-(trifluoromethyl)-3,6-dihydropyrimidin-1(2H)-yl]phenyl}sulfanyl)butanoate] | 100 | 100 | 100 | 100 | 100 | 100 | 100 | 100 | 100 | 0 | 0 | – | – | – | – | – | – | – | – | Alopecurus myosuroides (Efficacy in %) ([1]; application rate 20 g/ha): 90%; Avena fatua (Efficacy in %) ([3]; application rate 20 g/ha): 100%; Veronica persica (Efficacy in %) ([7]; application rate 20 g/ha): 100%; Digitaria sanguinalis (Efficacy in %) [13]: 100%
COC(=O)COC(=O)C(C)Sc1cc(-n2c(=O)cc(C(F)(F)F)n(C)c2=O)c(F)cc1Cl (stereo not shown) [I.1-42] | 100 | 100 | 100 | 100 | 100 | 100 | 100 | 100 | 100 | – | 10 | 90 | 100 | 90 | 100 | 90 | 100 | 100 | 100 | Triticum aestivum (Efficacy in %) ([17]; application rate 20 g/ha): 20%; Matricaria inodora (Efficacy in %) ([18]; application rate 80 g/ha): 100%; Amaranthus retroflexus (Efficacy in %) ([21]; application rate 20 g/ha): 100%; Setaria viridis (Efficacy in %) ([23]; application rate 80 g/ha): 100%; Abutilon theophrasti (Efficacy in %) ([24]; application rate 80 g/ha): 100%; Veronica persica (Efficacy in %) ([26]; application rate 80 g/ha): 100%; Viola tricolor (Efficacy in %) ([27]; application rate 80 g/ha): 100%; Pharbitis purpurea (Efficacy in %) ([29]; application rate 80 g/ha): 100%; Polygonum convolvulus (Efficacy in %) ([30]; application rate 80 g/ha): 100%; Stellaria media (Efficacy in %) ([31]; application rate 80 g/ha): 100%
CNC(=O)COC(=O)C(C)Sc1cc(-n2c(=O)cc(C(F)(F)F)n(C)c2=O)c(F)cc1Cl (stereo not shown) [I.1-182] | – | – | – | – | 100 | – | – | – | – | 20 | 20 | 100 | 100 | 80 | 90 | 90 | 100 | 80 | 100 | Alopecurus myosuroides (Efficacy in %) ([1]; application rate 80 g/ha): 80%; Amaranthus retroflexus (Efficacy in %) ([2]; application rate 80 g/ha): 100%; Avena fatua (Efficacy in %) ([3]; application rate 80 g/ha): 90%; Abutilon theophrasti (Efficacy in %) ([5]; application rate 80 g/ha): 100%; Matricaria inodora (Efficacy in %) ([6]; application rate 80 g/ha): 100%; Pharbitis purpurea (Efficacy in %) ([9]; application rate 80 g/ha): 100%; Polygonum convolvulus (Efficacy in %) ([10]; application rate 80 g/ha): 100%; Stellaria media (Efficacy in %) ([11]; application rate 80 g/ha): 100%; Echinochloa crus-galli (Efficacy in %) ([12]; application rate 80 g/ha): 100%; Triticum aestivum (Efficacy in %) ([17]; application rate 5 g/ha): 10%; Matricaria inodora (Efficacy in %) ([18]; application rate 320 g/ha): 100%; Amaranthus retroflexus (Efficacy in %) ([21]; application rate 80 g/ha): 100%; Setaria viridis (Efficacy in %) ([23]; application rate 320 g/ha): 100%; Abutilon theophrasti (Efficacy in %) ([24]; application rate 320 g/ha): 100%; Veronica persica (Efficacy in %) ([26]; application rate 320 g/ha): 100%; Viola tricolor (Efficacy in %) ([27]; application rate 320 g/ha): 100%; Pharbitis purpurea (Efficacy in %) ([29]; application rate 320 g/ha): 100%; Polygonum convolvulus (Efficacy in %) ([30]; application rate 320 g/ha): 100%; Stellaria media (Efficacy in %) ([31]; application rate 320 g/ha): 100%
